Laboratory results as given in ChEMBL document CHEMBL6074626, “Recent advances in triazole synthesis via click chemistry and their pharmacological applications: A review” (Bioorg Med Chem Lett, 2024).
Values after ≈ are worked out from the molar mass of the structure shown.

What was measured:
[1] = target: T1, Prostaglandin G/H synthase 1 (Ovis aries, UniProt P05979); assay: Inhibition of ovine COX-1
T1 sequence (P05979 whole entry): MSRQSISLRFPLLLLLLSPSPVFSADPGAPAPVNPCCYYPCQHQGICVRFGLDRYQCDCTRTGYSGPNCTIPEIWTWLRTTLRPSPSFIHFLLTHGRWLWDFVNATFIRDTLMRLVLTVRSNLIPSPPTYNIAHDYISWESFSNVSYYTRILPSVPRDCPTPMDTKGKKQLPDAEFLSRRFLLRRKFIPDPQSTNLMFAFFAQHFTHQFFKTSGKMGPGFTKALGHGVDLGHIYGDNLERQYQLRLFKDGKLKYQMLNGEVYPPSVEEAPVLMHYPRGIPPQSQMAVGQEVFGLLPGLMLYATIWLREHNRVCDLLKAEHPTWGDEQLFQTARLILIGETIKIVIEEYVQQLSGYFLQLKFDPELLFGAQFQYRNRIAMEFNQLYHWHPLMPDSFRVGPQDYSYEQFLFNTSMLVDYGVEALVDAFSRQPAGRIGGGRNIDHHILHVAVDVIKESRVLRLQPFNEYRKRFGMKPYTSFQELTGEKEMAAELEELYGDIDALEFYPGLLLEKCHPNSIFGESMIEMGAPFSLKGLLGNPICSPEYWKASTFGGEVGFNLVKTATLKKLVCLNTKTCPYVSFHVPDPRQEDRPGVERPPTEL

[2] = target: T2, Prostaglandin G/H synthase 2 (Homo sapiens, UniProt P35354); assay: Inhibition of human recombinant COX-2
T2 sequence (P35354 whole entry): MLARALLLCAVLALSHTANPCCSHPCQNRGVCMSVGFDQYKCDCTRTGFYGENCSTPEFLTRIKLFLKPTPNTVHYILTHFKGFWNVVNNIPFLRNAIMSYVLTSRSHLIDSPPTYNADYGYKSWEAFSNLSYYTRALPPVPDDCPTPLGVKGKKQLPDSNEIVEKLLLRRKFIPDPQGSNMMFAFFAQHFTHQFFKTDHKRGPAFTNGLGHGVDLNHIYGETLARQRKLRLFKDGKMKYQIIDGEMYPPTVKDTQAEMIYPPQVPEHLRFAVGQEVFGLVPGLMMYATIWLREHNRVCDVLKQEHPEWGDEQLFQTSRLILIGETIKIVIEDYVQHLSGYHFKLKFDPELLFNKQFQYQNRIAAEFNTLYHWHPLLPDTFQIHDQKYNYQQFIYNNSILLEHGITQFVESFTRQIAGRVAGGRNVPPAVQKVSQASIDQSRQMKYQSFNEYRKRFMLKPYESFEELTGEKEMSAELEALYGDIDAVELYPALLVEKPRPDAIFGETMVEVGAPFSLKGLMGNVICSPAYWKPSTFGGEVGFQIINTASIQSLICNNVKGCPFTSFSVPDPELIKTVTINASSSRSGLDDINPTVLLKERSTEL

[3] = test system: Staphylococcus aureus; assay: microbe, parasite or virus in culture; conditions: NCTC 13616, 20 h
Description: Antibacterial activity against methicillin-resistant Staphylococcus aureus NCTC 13616 assessed as reduction in bacterial growth incubated for 20 hrs by broth micro-dilution method

[4] = test system: Bacillus subtilis; assay: microbe, parasite or virus in culture; conditions: ATCC 6633, 20 h
Description: Antibacterial activity against Bacillus subtilis ATCC 6633 assessed as bacterial growth inhibition measured for 20 hrs by micro-broth dilution method

[5] = test system: Bacillus cereus; assay: microbe, parasite or virus in culture; conditions: ATCC 14579
Description: Antibacterial activity against Bacillus cereus ATCC 14579 assessed as reduction in bacterial growth incubated for 18 to 24 hrs by broth microdilution method

[6] = test system: Klebsiella pneumoniae; assay: microbe, parasite or virus in culture; conditions: ATCC 43816, 20 h
Description: Antimicrobial activity against Klebsiella pneumoniae ATCC 43816 assessed as reduction in bacterial growth incubated for 20 hrs by broth microdilution analysis

[7] = test system: Escherichia coli; assay: microbe, parasite or virus in culture; conditions: ATCC 8739, 20 h
Description: Antimicrobial activity against Escherichia coli ATCC 8739 assessed as reduction in bacterial growth incubated for 20 hrs by broth microdilution analysis

[8] = test system: Proteus vulgaris; assay: microbe, parasite or virus in culture; conditions: ATCC 13315, 24 h
Description: Antimicrobial activity against Proteus vulgaris ATCC 13315 assessed as microbial growth inhibition incubated for 24 hrs by broth microdilution method

| IC50 [1] | IC50 [2] | SMILES | also measured |
| --- | --- | --- | --- |
| 7.4 µM | 0.037 µM | O=C(/C=C/C=C/c1ccccc1)c1cc(-n2cc(CN3C(=O)C(=O)c4ccccc43)nn2)ccc1O | – |
| 7.4 µM | 0.037 µM | COc1ccc(/C=C/C(=O)c2cc(-n3cc(-c4ccccc4)nn3)ccc2O)cc1 | – |
| 7.4 µM | 0.037 µM | COc1cc(/C=C/C(=O)c2cc(-n3cc(-c4ccccc4)nn3)ccc2O)cc(OC)c1OC | – |
| 7.4 µM | 0.037 µM | O=C(/C=C/C=C/c1ccccc1)c1cc(-n2cc(-c3ccccc3)nn2)ccc1O | – |
| – | – | CCCCCCCCCCCCn1cc(COc2ccc(C(=O)C(C)c3ccc(CC(C)C)cc3)c(O)c2)nn1 (centres undefined) | MIC [3]: 12 µg/mL (≈ 21.9 µM); MIC [4]: 12 µg/mL (≈ 21.9 µM); MIC [5]: 12 µg/mL (≈ 21.9 µM); MIC [6]: 12 µg/mL (≈ 21.9 µM); MIC [7]: 12 µg/mL (≈ 21.9 µM); MIC [8]: 12 µg/mL (≈ 21.9 µM) |
| – | – | CC(C)Cc1ccc(C(C)C(=O)c2ccc(OCc3cn(-c4cccc(Cl)c4)nn3)cc2O)cc1 (centres undefined) | MIC [3]: 12 µg/mL (≈ 24.5 µM); MIC [4]: 12 µg/mL (≈ 24.5 µM); MIC [5]: 12 µg/mL (≈ 24.5 µM); MIC [6]: 12 µg/mL (≈ 24.5 µM); MIC [7]: 12 µg/mL (≈ 24.5 µM); MIC [8]: 12 µg/mL (≈ 24.5 µM) |
| – | – | CC(C)Cc1ccc(C(C)C(=O)c2ccc(OCc3cn(C4CCCCC4)nn3)cc2O)cc1 (centres undefined) | MIC [3]: 12 µg/mL (≈ 26 µM); MIC [4]: 12 µg/mL (≈ 26 µM); MIC [5]: 12 µg/mL (≈ 26 µM); MIC [6]: 12 µg/mL (≈ 26 µM); MIC [7]: 12 µg/mL (≈ 26 µM); MIC [8]: 12 µg/mL (≈ 26 µM) |
| – | – | CCCCCCn1cc(COc2ccc(C(=O)C(C)c3ccc(CC(C)C)cc3)c(O)c2)nn1 (centres undefined) | MIC [3]: 12 µg/mL (≈ 25.9 µM); MIC [4]: 12 µg/mL (≈ 25.9 µM); MIC [5]: 12 µg/mL (≈ 25.9 µM); MIC [6]: 12 µg/mL (≈ 25.9 µM); MIC [7]: 12 µg/mL (≈ 25.9 µM); MIC [8]: 12 µg/mL (≈ 25.9 µM) |
| 7.4 µM | 0.037 µM | O=C(/C=C/c1ccc(Cl)cc1)c1cc(-n2cc(CN3C(=O)C(=O)c4ccccc43)nn2)ccc1O | – |
| 7.4 µM | – | COc1ccc(/C=C/C(=O)c2cc(-n3cc(CN4C(=O)C(=O)c5ccccc54)nn3)ccc2O)cc1 | – |
| 7.4 µM | 0.037 µM | O=C(/C=C/c1ccc(Br)cc1)c1cc(-n2cc(-c3ccccc3)nn2)ccc1O | – |
| 7.4 µM | 0.037 µM | O=C(/C=C/c1ccccc1)c1cc(-n2cc(CN3C(=O)C(=O)c4ccccc43)nn2)ccc1O | – |
| – | – | CC(C)Cc1ccc(C(C)C(=O)c2ccc(OCc3cn(C4CCCC4)nn3)cc2O)cc1 (centres undefined) | MIC [3]: 12 µg/mL (≈ 26.8 µM); MIC [4]: 12 µg/mL (≈ 26.8 µM); MIC [5]: 12 µg/mL (≈ 26.8 µM); MIC [6]: 12 µg/mL (≈ 26.8 µM); MIC [7]: 12 µg/mL (≈ 26.8 µM); MIC [8]: 12 µg/mL (≈ 26.8 µM) |
| 7.4 µM | 0.037 µM | Cc1ccc(/C=C/C(=O)c2cc(-n3cc(-c4ccccc4)nn3)ccc2O)cc1 | – |
| 7.4 µM | 0.037 µM | O=C(/C=C/c1ccc(Br)cc1)c1cc(-n2cc(CN3C(=O)C(=O)c4ccccc43)nn2)ccc1O | – |
| 7.4 µM | 0.037 µM | O=C(/C=C/c1ccccc1)c1cc(-n2cc(-c3ccccc3)nn2)ccc1O | – |
| 7.4 µM | 0.037 µM | CN(C)C(=O)c1ccc(/C=C/C(=O)c2cc(-n3cc(CN4C(=O)C(=O)c5ccccc54)nn3)ccc2O)cc1 | – |
| 7.4 µM | 0.037 µM | COc1ccc(/C=C/C(=O)c2cc(-n3cc(CN4C(=O)C(=O)c5ccccc54)nn3)ccc2O)cc1OC | – |
| 7.4 µM | 0.037 µM | COc1ccc(/C=C/C(=O)c2cc(-n3cc(-c4ccccc4)nn3)ccc2O)cc1OC | – |
| 7.4 µM | 0.037 µM | Cc1ccc(/C=C/C(=O)c2cc(-n3cc(CN4C(=O)C(=O)c5ccccc54)nn3)ccc2O)cc1 | – |
| 7.4 µM | 0.037 µM | O=C(/C=C/c1ccc(O)cc1)c1cc(-n2cc(-c3ccccc3)nn2)ccc1O | – |
| 7.4 µM | 0.037 µM | COc1cc(/C=C/C(=O)c2cc(-n3cc(CN4C(=O)C(=O)c5ccccc54)nn3)ccc2O)cc(OC)c1OC | – |
| 7.4 µM | 0.037 µM | O=C(/C=C/c1ccc(O)cc1)c1cc(-n2cc(CN3C(=O)C(=O)c4ccccc43)nn2)ccc1O | – |
| 7.4 µM | 0.037 µM | O=C(/C=C/c1ccc(Cl)cc1)c1cc(-n2cc(-c3ccccc3)nn2)ccc1O | – |
| 7.4 µM | 0.037 µM | CN(C)C(=O)c1ccc(/C=C/C(=O)c2cc(-n3cc(-c4ccccc4)nn3)ccc2O)cc1 | – |
